{"source": "patent US20250230193A1", "about": "“CYCLIC COMPOUND HAVING SELECTIVE KRAS INHIBITORY EFFECT ON HRAS AND NRAS” (CHUGAI SEIYAKU KABUSHIKI KAISHA, priority 2022, published 2025)", "key": {"[1]": {"molecular_target": "GDP-bound HRAS wild-type protein (Homo sapiens, UniProt P01112)", "sequence (P01112 whole entry)": "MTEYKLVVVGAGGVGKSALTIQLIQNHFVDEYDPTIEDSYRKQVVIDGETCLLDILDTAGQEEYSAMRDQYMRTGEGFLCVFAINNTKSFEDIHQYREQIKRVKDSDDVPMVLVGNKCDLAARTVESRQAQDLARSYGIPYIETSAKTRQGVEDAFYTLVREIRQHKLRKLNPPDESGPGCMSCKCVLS", "experiment": "Binding to HRAS by surface plasmon resonance (SPR), Single Cycle Kinetics", "conditions": "for HRAS/KRAS (ratio of KD value for HRAS to KD value for KRAS) / HRAS/KRAS (ratio of KD value with respect to HRAS to KD value with respect to KRAS): GDP-bound HRAS wild-type vs GDP-bound KRAS wild-type"}, "[2]": {"molecular_target": "GDP-bound NRAS wild-type protein (Homo sapiens, UniProt P01111)", "sequence (P01111 whole entry)": "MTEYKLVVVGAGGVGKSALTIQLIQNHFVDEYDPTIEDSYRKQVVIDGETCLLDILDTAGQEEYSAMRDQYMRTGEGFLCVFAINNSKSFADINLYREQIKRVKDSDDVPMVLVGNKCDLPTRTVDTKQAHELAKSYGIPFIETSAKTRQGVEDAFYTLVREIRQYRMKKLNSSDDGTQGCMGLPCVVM", "experiment": "Binding to NRAS by surface plasmon resonance (SPR), Single Cycle Kinetics", "conditions": "for NRAS/KRAS (ratio of KD value for NRAS to KD value for KRAS) / NRAS/KRAS (ratio of KD value with respect to NRAS to KD value with respect to KRAS): GDP-bound NRAS wild-type vs GDP-bound KRAS wild-type"}}, "note": "Where a SMILES comes first, the peptide text is derived from it. Bridges are numbered along the chain shown (N, C = ends). [ ]: non-standard residue; d: D form. The star is where a group is joined. hPhe(3-Cl-4-CF3) = N[C@@H](CCc1ccc(C(F)(F)F)c(Cl)c1)C(=O)O; NPrPhe(4-CF3) = CCCN[C@@H](Cc1ccc(C(F)(F)F)cc1)C(=O)O; NMeGly(cPent) = CN[C@H](C(=O)O)C1CCCC1; Pro(4S-Me) = C[C@@H]1CN[C@H](C(=O)O)C1; Ac4c(3,3-Me2) = CC1(C)CC(N)(C(=O)O)C1; NMeD = CN[C@@H](CC(=O)O)C(=O)O; NMeL = CN[C@@H](CC(C)C)C(=O)O; Morpholide = C1CN(*)CCO1; Ac5c = NC1(C(=O)O)CCCC1; Sar = CNCC(=O)O"}
{"compound": "CCCN1C(=O)CN(C)C(=O)CN(C)C(=O)[C@H]([C@@H](C)OC)NC(=O)[C@H](CC(C)C)N(C)C(=O)C[C@@H](C(=O)N2CCOCC2)N(C)C(=O)[C@H](C2CCCC2)N(C)C(=O)C2(CC(C)(C)C2)NC(=O)[C@@H]2CCCN2C(=O)[C@H](CCc2ccc(C(F)(F)F)c(Cl)c2)NC(=O)CN(C)C(=O)[C@@H]1Cc1ccc(C(F)(F)F)cc1", "note": "[PP1963] ([NMeL]T(Me)[Sar][Sar][NPrPhe(4-CF3)][Sar][hPhe(3-Cl-4-CF3)]P[Ac4c(3,3-Me2)][NMeGly(cPent)][NMeD]-Morpholide; lactam N-11)", "values": [{"measurement": "HRAS/KRAS (ratio of KD value for HRAS to KD value for KRAS)", "setting": "[1]; SPR", "value": "C (A compound having a KD ratio of 0.1 or more and less than 3 is denoted as C)"}, {"measurement": "NRAS/KRAS (ratio of KD value for NRAS to KD value for KRAS)", "setting": "[2]; SPR", "value": "B (a compound having 3 or more and less than 10 is denoted as B)"}]}
{"compound": "CCC[C@H]1C(=O)N[C@@H](CC(C)C)C(=O)N(CC)CC(=O)N(C)[C@H]2C/C=C\\CCN(C2=O)[C@@H](Cc2ccc(C)cc2)C(=O)N(C)CC(=O)N[C@@H](CCc2ccc(C(F)(F)F)c(OC)c2)C(=O)N2C[C@H](OCC)C[C@H]2C(=O)NC2(CCC2)C(=O)N(C)[C@@H](C2CCCC2)C(=O)N(C)[C@H](C(=O)N(C)C)CC(=O)N1C", "note": "[PP2540]", "values": [{"measurement": "HRAS/KRAS (ratio of KD value with respect to GDP-bound HRAS wild-type protein to KD value with respect to KRAS)", "setting": "[1]; class symbols", "value": "B (a compound having 3 or more and less than 10 is denoted as B)"}, {"measurement": "NRAS/KRAS (ratio of KD value with respect to GDP-bound NRAS wild-type protein to KD value with respect to KRAS)", "setting": "[2]; class symbols", "value": "A (a compound having 10 or more and less than 20 is denoted as A)"}]}
{"compound": "CCCN1C(=O)CN(C)C(=O)CN(C)C(=O)[C@H]([C@@H](C)CC)NC(=O)[C@H](CC(C)C)N(C)C(=O)C[C@@H](C(=O)N2CCOCC2)N(C)C(=O)[C@H](C2CCCC2)N(C)C(=O)C2(CCCC2)NC(=O)[C@@H]2C[C@H](C)CN2C(=O)[C@H](CCc2ccc(C(F)(F)F)c(Cl)c2)NC(=O)CN(C)C(=O)[C@@H]1Cc1ccc(C(F)(F)F)cc1", "note": "[PP0447] ([NMeL]I[Sar][Sar][NPrPhe(4-CF3)][Sar][hPhe(3-Cl-4-CF3)][Pro(4S-Me)][Ac5c][NMeGly(cPent)][NMeD]-Morpholide; lactam N-11)", "values": [{"measurement": "HRAS/KRAS (ratio of KD value with respect to GDP-bound HRAS wild-type protein to KD value with respect to KRAS)", "setting": "[1]; SPR", "value": "C (A compound having a KD ratio of 0.1 or more and less than 3 is denoted as C)"}, {"measurement": "NRAS/KRAS (ratio of KD value with respect to GDP-bound NRAS wild-type protein to KD value with respect to KRAS)", "setting": "[2]; SPR", "value": "B (a compound having 3 or more and less than 10 is denoted as B)"}]}
{"compound": "CCO[C@@H]1C[C@H]2C(=O)NC3(CC(C)(C)C3)C(=O)N(C)[C@@H](C3CCCC3)C(=O)N(C)[C@H](C(=O)N(C)CC)CC(=O)N(C)[C@@H](CC(C)C)C(=O)N[C@@H]([C@@H](C)CC)C(=O)N(C)CC(=O)N(C)[C@H]3C/C=C\\CCN(C3=O)[C@@H](Cc3ccc(C(F)F)cc3)C(=O)N(C)CC(=O)N[C@@H](CCc3cc(F)c(C(F)(F)F)c(F)c3)C(=O)N2C1", "note": "[PP2046]", "values": [{"measurement": "HRAS/KRAS (ratio of KD value with respect to HRAS to KD value with respect to KRAS)", "setting": "[1]; SPR", "value": "A (a compound having 10 or more and less than 20 is denoted as A)"}, {"measurement": "NRAS/KRAS (ratio of KD value with respect to NRAS to KD value with respect to KRAS)", "setting": "[2]; SPR", "value": "A (a compound having 10 or more and less than 20 is denoted as A)"}]}
{"compound": "CCCO[C@H](C)[C@@H]1NC(=O)[C@H](COCC)N(C)C(=O)C[C@@H](C(=O)N(C)CC)N(C)C(=O)[C@H](C2CCCC2)N(C)C(=O)C2(CC(C)(C)C2)NC(=O)[C@@H]2C[C@@H](OCC)CN2C(=O)[C@H](CCc2cc(F)c(C(F)(F)F)c(F)c2)NC(=O)CN(C)C(=O)[C@H](Cc2ccc(C)cc2)N2CC/C=C\\C[C@@H](C2=O)N(C)C(=O)[C@@H]2CCCN2C1=O", "note": "[PP2436]", "values": [{"measurement": "HRAS/KRAS (ratio of KD value with respect to HRAS to KD value with respect to KRAS)", "setting": "[1]; SPR", "value": "A (a compound having 10 or more and less than 20 is denoted as A)"}, {"measurement": "NRAS/KRAS (ratio of KD value with respect to NRAS to KD value with respect to KRAS)", "setting": "[2]; SPR", "value": "A (a compound having 10 or more and less than 20 is denoted as A)"}]}
{"compound": "CCO[C@@H]1C[C@H]2C(=O)N(C)C3(CCC3)C(=O)N(C)[C@@H](C3CCCC3)C(=O)N(C)[C@H](C(=O)N(C)C)CC(=O)N(C)[C@@H](CC)C(=O)N[C@@H]([C@@H](C)CC)C(=O)N3CCC[C@H]3C(=O)N(C)[C@H]3C/C=C\\CCN(C3=O)[C@@H](Cc3ccc(C)cc3)C(=O)N(C)CC(=O)N[C@@H](CCc3cc(F)c(C(F)(F)F)c(F)c3)C(=O)N2C1", "note": "[PP1785]", "values": [{"measurement": "HRAS/KRAS (ratio of KD value for HRAS to KD value for KRAS)", "setting": "[1]; SPR", "value": "A (a compound having 10 or more and less than 20 is denoted as A)"}, {"measurement": "NRAS/KRAS (ratio of KD value for NRAS to KD value for KRAS)", "setting": "[2]; SPR", "value": "A (a compound having 10 or more and less than 20 is denoted as A)"}]}
{"compound": "CCC[C@H]1C(=O)N[C@@H]([C@@H](C)CC)C(=O)N(C)CC(=O)N(C)[C@H]2C/C=C\\CCN(C2=O)[C@@H](Cc2ccc(C)cc2)C(=O)N(C)CC(=O)N[C@@H](CCc2ccc3ccn(C)c3c2)C(=O)N2C[C@H](OCC)C[C@H]2C(=O)NC2(CC(C)(C)C2)C(=O)N(C)[C@@H](C(CC)CC)C(=O)N(C)[C@H](C(=O)N(C)C)CC(=O)N1C", "note": "[PP2914]", "values": [{"measurement": "HRAS/KRAS (ratio of KD value with respect to GDP-bound HRAS wild-type protein to KD value with respect to KRAS)", "setting": "[1]; class symbols", "value": "A (a compound having 10 or more and less than 20 is denoted as A)"}, {"measurement": "NRAS/KRAS (ratio of KD value with respect to GDP-bound NRAS wild-type protein to KD value with respect to KRAS)", "setting": "[2]; class symbols", "value": "AA (a compound having 20 or more is denoted as AA)"}]}
